{
  "source": "patent US20130333059A1",
  "about": "“HOX COMPOSITIONS AND METHODS” (THE JOHNS HOPKINS UNIVERSITY, priority 2006, published 2013)",
  "key": {"[1]": {"tested_on": "Her2/Hoxb7 transgenic mouse mammary tumor cells", "assay": "Sensitivity to anti-ER drugs, Her2/Hoxb7 transgenic mouse mammary tumor cells", "assay_type": "cell-based"}, "[2]": {"tested_on": "LTED cells", "conditions": "Martin La., 2005; cited from earlier work"}, "[3]": {"tested_on": "Her2 positive transgenic mammary tumor cells", "assay": "Sensitivity to anti-ER drugs, Her2 positive transgenic mammary tumor cells", "assay_type": "cell-based, mouse", "conditions": "cells do not express ER"}, "[4]": {"tested_on": "MCF-7-B7 cells", "assay": "Soft agar colony formation, MCF-7-B7 cells", "assay_type": "cell-based, human"}, "[5]": {"tested_on": "MCF-7-TMR cells", "assay": "Colony formation and ERE-Luc activity, MCF-7-TMR cells", "assay_type": "cell-based, human"}, "[6]": {"tested_on": "EGFR/HER2 and ERα signaling", "assay": "Immunoblot of EGFR/HER2, MAPK, ERα signaling in MCF-7-B7 cells", "assay_type": "cell-based, human"}, "[7]": {"tested_on": "HOXB7 promoter region", "assay": "CHIP analysis of T47D cells, HOXB7 promoter region", "assay_type": "cell-based, human", "conditions": "1 μM tamoxifen, 45 min"}, "[8]": {"tested_on": "EGFR, HER2, ERα and HOXB7", "assay": "Immunoblot of EGFR, HER2, ERα, HOXB7 in long-term tamoxifen treated MCF-7 (MCF-7-TMR) cells", "assay_type": "cell-based, human"}, "[9]": {"tested_on": "MCF-7-B7 cells", "assay": "Xenograft of MCF-7-B7 cells in athymic mice", "assay_type": "in vivo", "conditions": "absence of exogenous estrogen supplement", "description": "3×10^6 cells of MCF-7-vec or MCF-7-B7 were suspended in 100 μl PBS/Matrigel (1:1) and injected s.c into the female 3- to 4-week-old BALB/c nu/nu athymic mice (Harlan, Sprague Dawley, Madison, Wis.), which simultaneously received a 60-day slow release pellet containing 0.72 mg of 17β-estradiol and/or 5 mg tamoxifen (Innovative Research of America, Southfield, Mich.). Fulvestrant was dissolved in 100% ethanol and diluted in sesame oil; 5 mg was injected s.c. twice a week^20. Animals were observed once a week. At necropsy, primary tumors, liver, lung and spleen were evaluated for the presence of macroscopic tumors. Tissue samples of the primary tumor and organs were fixed in 4% paraformaldehyde and stained with H&E to assess histomorphology."}, "[10]": {"tested_on": "HOXB7, EGFR and HER2", "assay": "HOXB7, EGFR, HER2 expression in T47D cells upon tamoxifen", "assay_type": "cell-based, human"}, "[11]": {"tested_on": "ERE-luc reporter", "assay": "ERE-tk-Luc reporter assay, MCF-7-B7 cells", "assay_type": "cell-based, human", "conditions": "100 nM tamoxifen, 10 nM E2, 24 h", "description": "Transient transfection was performed with the respective promoter-luciferase constructs. Results were normalized to the level of B-galactosidase activity in the samples. The EGFR promoter reporter plasmids were a kind gift of Dr. Alfred C. Johnson (Bethesda, Md.). ERE-tk-LUC was a generous gift from Dr. Elaine Alarid (Madison, Wis.)."}, "[12]": {"tested_on": "EGFR/HER2 and ERα signaling", "assay": "Immunoblot of EGFR/HER2, MAPK, ERα signaling in MCF-7-vec cells", "assay_type": "cell-based, human", "conditions": "1 μM tamoxifen, estrogen deprived medium, 48 hours"}, "[13]": {"tested_on": "MDCK-B7 cells", "assay": "Matrigel invasion assay, pooled MDCK-B7 cells", "assay_type": "cell-based, canine", "conditions": "Su5402 40 μmol/L; for invasive phenotype / invasive ability of MDCK-B7 cells: 36 hours, Bay43-9006 4 μmol/L, U0126 10 μmol/L, either inhibitor alone or in combination", "description": "(§1) Matrigel invasion assay. Into the Biocoat Matrigel invasion chambers (BD Biosciences) were seeded 4×10^4 cells in 2% FBS medium, and in the lower wells 10% FBS was added as the chemoattractant. After 36 hours of incubation, the filters were stained with crystal violet, and the number of cells that had penetrated through the filter was counted under ×20 magnification (10 randomly selected high-power fields). For inhibition of invasion assays, the FGF receptor inhibitor Su5402 (40 μmol/L), the MAPK/extracellular signal-regulated kinase kinase (MEK) inhibitor U0126 (10 μmol/L), and the Raf inhibitor Bay43-9006 (4 μmol/L; Calbiochem, San Diego, Calif.) were added to the medium in the top chamber at the final concentrations indicated. Ras and RhoA activation assay. Cell lysates were incubated with glutathione S-transferase (GST)-Raf-1 Ras binding domain or GST-Rhotekin RhoA binding domain agarose beads (Upstate, Charlottesville, Va.). GTP-bound Ras or RhoA that precipitated with the beads were detected by SDS-PAGE and immunoblotting with anti-Ras antibody (Santa Cruz Biotechnology) or anti-RhoA antibody (Upstate)."}, "[14]": {"tested_on": "TGFα and HB-EGF", "assay": "Immunoblot of TGFα and HB-EGF in MCF-10A-B7 cells", "assay_type": "cell-based, human", "conditions": "0.1 μM AG1478, 24 hours"}, "[15]": {"conditions": "in the clinic; cited from earlier work"}, "[16]": {"tested_on": "BT474 cells", "assay": "Soft agar colony formation, BT474 cells", "assay_type": "cell-based, human", "conditions": "1 μM gefitinib and 1 μM tamoxifen"}, "[17]": {"tested_on": "Ras", "assay": "Ras activation assay, MDCK-B7 cells", "assay_type": "cell-based, canine", "description": "as §1"}, "[18]": {"conditions": "MCF-7 cells, 0.1 μM tamoxifen over time (0, 2, 4, 6 months)"}, "[19]": {"conditions": "MCF-7 cells, 1 μM or 0.1 μM tamoxifen for at least 6 months"}},
  "note": "Entries after “also recorded” stand apart in the source; their conditions may differ.",
  "data": [
    {"smiles": "CC/C(=C(\\c1ccccc1)c1ccc(OCCN(C)C)cc1)c1ccccc1", "note": "[tamoxifen]", "values": [
      {"measurement": "response to treatment", "setting": "[1]", "value": "not responding"},
      {"measurement": "sensitivity of LTED cells", "setting": "[2]", "value": "refractory"},
      {"measurement": "response to treatment", "setting": "[3]", "value": "did not respond"},
      {"measurement": "growth (colonies in soft agar)", "setting": "[4]; estrogen-deprived conditions, tamoxifen 1 μM", "value": "enhanced"},
      {"measurement": "sensitivity to the inhibitory effects of tamoxifen in culture", "setting": "[4]; tamoxifen 1 μM, complete medium", "value": "loss of sensitivity"},
      {"measurement": "resistance to tamoxifen treatment (colony formation and ERE-Luc activity)", "setting": "[5]; 100 nM tamoxifen", "value": "significant resistance"},
      {"measurement": "effect on the expression of Cyclin D1 and Bcl-2", "setting": "[6]; 1 μM tamoxifen, 48 hours", "value": "potent estrogen-like agonistic effect"},
      {"measurement": "p44/42 MAPK activity and phosphorylation of ERα at serine 118", "setting": "[6]; 1 μM tamoxifen, 48 hours", "value": "increased"},
      {"measurement": "active forms of EGFR and HER2", "setting": "[6]; 1 μM tamoxifen, estrogen deprived medium, 48 hours", "value": "significantly higher level"},
      {"measurement": "activation of p44 MAPK and ER phosphorylation at Ser 118 site", "setting": "[6]; 1 μM tamoxifen, short period, MCF-7-B7", "value": "potently stimulates"},
      {"measurement": "levels of active forms of EGFR and HER2", "setting": "[6]; 1 μM tamoxifen, short period, estrogen deprived", "value": "elevated levels"},
      {"measurement": "binding of ERα to HOXB7 promoter region", "setting": "[7]", "value": "promoted binding"},
      {"measurement": "expression of EGFR/HER2 and ERα", "setting": "[8]; [18]", "value": "concomitant increases"},
      {"measurement": "levels of expression of HOXB7", "setting": "[8]; [18]", "value": "progressively increasing levels"},
      {"measurement": "HOXB7 expression level", "setting": "[8]; [19]", "value": "potently elevated"},
      {"measurement": "expression of EGFR, HER2 and ERα", "setting": "[8]; [19]", "value": "elevated expression"},
      {"measurement": "effect on established tumors of MCF-7-B7 cells in nude mice", "setting": "[9]; tamoxifen 83.3 μg/day", "value": "no inhibitory effect"},
      {"measurement": "expression of HOXB7", "setting": "[10]; 1 μM tamoxifen, short-term", "value": "increased expression"},
      {"measurement": "expression levels of EGFR and HER2", "setting": "[10]; tamoxifen", "value": "induced"},
      {"measurement": "attenuation of estrogen-stimulated ERE-luc reporter activity", "setting": "[11]", "value": "inability"},
      {"measurement": "increase of active form of HER2", "setting": "[12]", "value": "about 1.5 fold"},
      {"measurement": "levels of the active form of EGFR", "setting": "[12]", "value": "reduction"}
    ]},
    {"smiles": "N#CC(=C(/N)Sc1ccccc1N)/C(C#N)=C(\\N)Sc1ccccc1N", "note": "[U0126]", "values": [
      {"measurement": "invasive phenotype / invasive ability of MDCK-B7 cells", "setting": "[13]", "value": "complete suppression; also recorded: block"}
    ]},
    {"smiles": "COc1cc2ncnc(Nc3cccc(Cl)c3)c2cc1OC", "note": "[AG1478]", "values": [
      {"measurement": "elevated expression of TGFα and HB-EGF", "setting": "[14]", "value": "significantly abrogated"}
    ]},
    {"smiles": "C[C@]12CC[C@@H]3c4ccc(O)cc4C[C@@H](CCCCCCCCC[S+]([O-])CCCC(F)(F)C(F)(F)F)[C@H]3[C@@H]1CC[C@@H]2O", "note": "(stereo partly shown) [fulvestrant]", "values": [
      {"measurement": "response to treatment", "setting": "[1]", "value": "strongly respond"},
      {"measurement": "sensitivity of LTED cells", "setting": "[2]", "value": "sensitive"},
      {"measurement": "response to treatment", "setting": "[3]", "value": "did not respond"},
      {"measurement": "tamoxifen-relapsed / tamoxifen-resistant patients who respond", "setting": "[15]", "value": "nearly two-thirds"},
      {"measurement": "sensitivity to fulvestrant treatment in vitro", "setting": "[4]; MCF-7-B7, 1 μM Fulvestrant", "value": "remained sensitive"},
      {"measurement": "HOXB7-promoted colony formation in vitro", "setting": "[4]; in a dose-dependent manner", "value": "reduced"},
      {"measurement": "sensitivity to fulvestrant treatment in vitro", "setting": "[5]; MCF-7-TMR, 1 μM Fulvestrant", "value": "remained sensitive"},
      {"measurement": "levels of the autocrine/paracrine EGFR ligands (Amphiregulin and TGFα)", "setting": "[6]; 1 μM fulvestrant, 24 h", "value": "significant reduction"},
      {"measurement": "HOXB7 overexpression-related increases in EGFR and p44/42 MAPK activity", "setting": "[6]; fulvestrant treatment", "value": "reduced"},
      {"measurement": "expression of EGFR and HER2", "setting": "[8]; MCF-7-TMR cells, 1 μM fulvestrant, 24 h", "value": "significantly reduced"},
      {"measurement": "HOXB7 levels", "setting": "[8]; MCF-7-TMR cells, 1 μM fulvestrant, 24 h, vs vehicle", "value": "lower"},
      {"measurement": "tumor formation in vivo", "setting": "[9]; fulvestrant 10 mg/week", "value": "reduced"}
    ]},
    {"smiles": "COc1cc2ncnc(Nc3ccc(F)c(Cl)c3)c2cc1OCCCN1CCOCC1", "note": "[gefitinib]", "values": [
      {"measurement": "effect on tamoxifen action in BT474 cells", "setting": "[16]", "value": "dramatically converted tamoxifen from a partial agonist to a potent antagonist"},
      {"measurement": "sensitivity of the cells to tamoxifen treatment", "setting": "[4]; 1 μM tamoxifen in combination with 1 μM gefitinib", "value": "significantly re-sensitized"}
    ]},
    {"smiles": "CNC(=O)c1cc(Oc2ccc(NC(=O)Nc3ccc(Cl)c(C(F)(F)F)c3)cc2)ccn1", "note": "[Bay43-9006]", "values": [
      {"measurement": "invasive phenotype / invasive ability of MDCK-B7 cells", "setting": "[13]", "value": "complete suppression"},
      {"measurement": "invasive phenotype / invasive ability of MDCK-B7 cells", "setting": "[13]; listed as BAY 43-9006", "value": "block"}
    ]},
    {"smiles": "Cc1c[nH]c(/C=C2\\C(=O)Nc3ccccc32)c1CCC(=O)O", "note": "[Su5402]", "values": [
      {"measurement": "active form Ras (Ras-GTP form)", "setting": "[17]", "value": "attenuate"},
      {"measurement": "invasive phenotype / invasive ability of MDCK-B7 cells", "setting": "[13]", "value": "reduce"},
      {"measurement": "inhibition of invasion ability of MDCK-B7 cell", "setting": "[13]", "value": "~80", "unit": "%"}
    ]}
  ]
}
